The nature of experiment [1]: Binding affinity against imipramine receptor was determined in homogenized rat cortex tissue using [3H]-imipramine as radioligand.
Experiment [2] concerns the target Muscarinic acetylcholine receptor. Kind of experiment: Binding affinity against Muscarinic acetylcholine receptor was determined in homogenized rat cortex tissue using [3H]N-methylscopolamine as radioligand.

As to `CN1CCN(CC(=O)N2c3ccccc3C(=O)Nc3cccnc32)CC1` [PIRENZEPINE], the Ki (usually the dissociation constant of the complex between target and ligand, obtained from inhibition or displacement) in experiment [1] is more than 100 µM.
Take `CN(C)CCCN1c2ccccc2CCc2ccccc21` [IMIPRAMINE]: the Ki turned out to be 0.012 µM in experiment [1] and 0.065 µM in experiment [2].
For `CN(C)CCC(=O)N1c2ccccc2CCc2ccccc21`, the Ki in experiment [1] turned out to be 0.4 µM; in experiment [2], 0.24 µM.
As to `CN1CCN(CC(=O)N2c3ccccc3CCc3ccccc32)CC1`, the Ki in experiment [1] is more than 100 µM; in experiment [2], 0.2 µM.
In the same order, the values of `CN(C)CCC(=O)N1c2ccccc2NC(=O)c2ccccc21` are more than 100 µM and 0.006 µM.
Regarding `CN(C)CCC(=O)N1c2ccccc2C(=O)Nc2cccnc21`, the Ki was more than 100 µM in experiment [1] and 0.045 µM in experiment [2].
In the same order, the values of `CN1CCN(CC(=O)N2c3ccccc3NC(=O)c3ccccc32)CC1` are more than 100 µM and 0.023 µM.
For `CN(C)CCCN1c2ccccc2NC(=O)c2ccccc21`, in that order: 4 µM and 0.05 µM.
For `CN(C)CCCN1c2ccccc2C(=O)Nc2cccnc21`, in that order: 15 µM and 0.2 µM.

The values above are taken from ChEMBL document CHEMBL1123907 (J Med Chem, 1987).
